From patent publication US10842892B2, “Methods and apparatus for synthesizing imaging agents, and intermediates thereof” (Lantheus Medical Imaging, Inc., priority 2010, dated 2020)
Values joined by “and” are separate entries in the source; they are usually repeats but may differ in a detail not shown here. Equal entries are not always repeated.

Key:
control and MI rabbits = assay: cardiovascular evaluation (ECG, arterial pressure) after injection in control and MI rabbits; assay type: in vivo, rabbit
Description: PET images and cardiovascular parameters were evaluated in both normal and MI rabbits. Prior to imaging, the rabbit was anesthetized with ketamine (25 mg/Kg, im) and xylazine (5 mg/Kg, im) and the marginal ear vein was catheterized for imaging agent 1 injection. The right femoral artery was isolated and canulated with a Millar catheter (SPC340, Millar Instruments, Houston, Tex.) for arterial pressure measurement. Then the animal was positioned in a microPET camera (Focus220, CTI Molecular Imaging, Inc. Knoxville, Tenn.) for cardiac imaging. The Millar catheter was connected to a computer driven data acquisition system (MP35, BIOPAC Systems, Goleta, Calif.) for recording of mean arterial pressure (MAP), and systolic and diastolic arterial pressure (SAP and DAP). In addition, electrocardiogram (ECG) was also recorded with 3 non-invasive limb leads in lead II configuration using the BIOPAC system. Heart rate (HR) and QT interval were derived from ECG recording. After a stabilization period, cardiovascular parameters: MAP, SBP, DBP and ECG, were recorded 5 minutes before imaging agent 1 intravenous injection (˜1.5 mCi) and the recording continued for additional 20 minutes post-injection. The rabbit was imaged for 30 minutes.
Data are expressed as mean±SD and unpaired student t-test (assuming unequal variances) was used for comparison of baseline values between control and MI rabbits. p<0.05 was considered statistically significant. At each timepoint (before and 1-, 5-, 10- and 20-minute after imaging agent 1 injection), MAP, SAP and DAP measured intraarterially averaged every 10-second, and HR and QTc interval derived from ECG recording averaged every 12 heart beats. The QT interval was manually defined by one investigator and QTc was generated from QT corrected by RR interval using Fridericia method (QTc=QT/RR1/3).9

[1] = syringe component adsorption of imaging agent 1; assay type: physicochemical; conditions: B&D syringe, three hours
Description: To further identify the contact surface material that contributed to syringe retention of imaging agent 1, three additional B&D syringes were each filled with a 1 mL solution of imaging agent 1 then maintained at ambient temperature and humidity for a period of three hours. Following transfer of the individual doses as described in Example 1, the syringe barrel and butyl rubber tip plunger were then separated, measured for retained radioactivity and decay corrected. The difference in percent retained activity is statistically significant at the 95% confidence level (i.e. Prob>|t| 0.0017).

heart wall = conditions: primate-derived estimates; cited from earlier work
[2] = tested on: stress induced myocardial perfusion abnormalities; assay: rest-stress imaging agent 1 PET versus Tc-99m Sestamibi SPECT MPI, single center; assay type: in vivo, human; conditions: myocardial segments supplied by diseased coronary arteries, 13 patients
Description: Thirteen patients, from a single center, underwent rest-stress Tc-99m Sestamibi SPECT MPI, rest-stress imaging agent 1 PET MPI and coronary angiography. In each patient, 17 myocardial segments were visually scored for rest and stress images by independent observers who were blinded to all other results. For each patient, summed stress scores (SSS), summed rest scores (SRS), and summed difference scores (SDS) were determined from segmental scores. Percent narrowing in each coronary artery was evaluated blindly and 70% luminal diameter narrowing was considered significant.

[3] = tested on: coronary artery disease (CAD); assay: Phase 2 diagnostic performance for coronary artery disease, PET versus SPECT; assay type: in vivo, human
From the text: 143 patients (Pts) from 21 centers, presenting with a broad spectrum of CAD pre-test likelihoods, underwent rest-stress Tc-99m labeled SPECT MPI and imaging agent 1 PET MPI. […] Their mean age was 64.5 (range: 36-85) years and 68 were males. % narrowing in each coronary artery was quantified blindly. 52/84 Pts had significant CAD (≥50% luminal diameter narrowing) and 32/84 had insignificant CAD/normal coronary arteries. In each patient, 17 myocardial segments were visually scored on rest and stress images by 3 independent, blinded readers and majority rule interpretation was determined in each patient for both PET and SPECT studies. Diagnostic performance of PET was compared to that of SPECT using ROC analysis.

healthy adults = assay: clinical safety evaluation after single dose at rest; assay type: in vivo, human; conditions: 13 healthy adults
Description: This was a non-randomized, open-label, single-dose study. A total of 13 healthy adult subjects were enrolled and administered a single dose of imaging agent 1 at a single study center in the United States. Subjects were screened within 14 days prior to enrollment to confirm subject eligibility, and began baseline assessments at the study center the day before study drug administration. Subjects remained at the study center until completion of the Study Day 2 safety assessments (24±8 hours post-dose). A telephone call was made to study subjects 48±8 hours post-dose for adverse event (AE) monitoring. All subjects returned to the study center approximately one week (5-7 days) post-dose for a follow-up safety visit, and were contacted by telephone approximately 14-17 days post-dose for final serious AE monitoring.

CC(C)(C)n1ncc(OCc2ccc(COCC[18F])cc2)c(Cl)c1=O [imaging agent 1, 2-t-butyl-4-chloro-5-[4-(2-(^18F)fluoroethoxymethyl)-benzyloxy]-2H-pyridazin-3-1]
QTc, change from baseline after injection (control and MI rabbits; Control rabbits (n = 3), 1 min): 2 ± 15 ms | QTc, change from baseline after injection (control and MI rabbits; Control rabbits (n = 3), 5 min): -1 ± 11 ms | QTc, change from baseline after injection (control and MI rabbits; Control rabbits (n = 3), 10 min): 6 ± 20 ms | QTc, change from baseline after injection (control and MI rabbits; Control rabbits (n = 3), 20 min): 9 ± 15 ms | Diastolic AP, change from baseline after injection (control and MI rabbits; Control rabbits, 1 min): 0 ± 1 mmHg | Heart rate, change from baseline after injection (control and MI rabbits; Control rabbits, 1 min): −4 ± 2 beat/min | Mean AP, change from baseline after injection (control and MI rabbits; Control rabbits, 1 min): 0 ± 0 mmHg | Systolic AP, change from baseline after injection (control and MI rabbits; Control rabbits, 1 min): 0 ± 1 mmHg | Diastolic AP, change from baseline after injection (control and MI rabbits; Control rabbits, 5 min): −1 ± 2 mmHg | Heart rate, change from baseline after injection (control and MI rabbits; Control rabbits, 5 min): −2 ± 1 beat/min | Mean AP, change from baseline after injection (control and MI rabbits; Control rabbits, 5 min): −2 ± 0 mmHg | Systolic AP, change from baseline after injection (control and MI rabbits; Control rabbits, 5 min): −2 ± 1 mmHg | Diastolic AP, change from baseline after injection (control and MI rabbits; Control rabbits, 10 min): 0 ± 5 mmHg | Heart rate, change from baseline after injection (control and MI rabbits; Control rabbits, 10 min): −2 ± 4 beat/min | Mean AP, change from baseline after injection (control and MI rabbits; Control rabbits, 10 min): −2 ± 3 mmHg | Systolic AP, change from baseline after injection (control and MI rabbits; Control rabbits, 10 min): −1 ± 6 mmHg | Diastolic AP, change from baseline after injection (control and MI rabbits; Control rabbits, 20 min): 0 ± 5 mmHg | Heart rate, change from baseline after injection (control and MI rabbits; Control rabbits, 20 min): −4 ± 4 beat/min | Mean AP, change from baseline after injection (control and MI rabbits; Control rabbits, 20 min): −1 ± 6 mmHg | Systolic AP, change from baseline after injection (control and MI rabbits; Control rabbits, 20 min): 0 ± 5 mmHg | QTc, change from baseline after injection (control and MI rabbits; MI rabbits (n = 4), 1 min): 8 ± 5 ms | QTc, change from baseline after injection (control and MI rabbits; MI rabbits (n = 4), 5 min): 4 ± 6 ms | QTc, change from baseline after injection (control and MI rabbits; MI rabbits (n = 4), 10 min): 4 ± 8 ms | QTc, change from baseline after injection (control and MI rabbits; MI rabbits (n = 4), 20 min): 3 ± 12 ms | Diastolic AP, change from baseline after injection (control and MI rabbits; MI rabbits, 1 min): 1 ± 1 mmHg | Heart rate, change from baseline after injection (control and MI rabbits; MI rabbits, 1 min): 6 ± 5 beat/min | Mean AP, change from baseline after injection (control and MI rabbits; MI rabbits, 1 min): 2 ± 1 mmHg | Systolic AP, change from baseline after injection (control and MI rabbits; MI rabbits, 1 min): 1 ± 2 mmHg | Diastolic AP, change from baseline after injection (control and MI rabbits; MI rabbits, 5 min): 2 ± 2 mmHg | Heart rate, change from baseline after injection (control and MI rabbits; MI rabbits, 5 min): 3 ± 8 beat/min | Mean AP, change from baseline after injection (control and MI rabbits; MI rabbits, 5 min): 2 ± 2 mmHg | Systolic AP, change from baseline after injection (control and MI rabbits; MI rabbits, 5 min): 2 ± 2 mmHg | Diastolic AP, change from baseline after injection (control and MI rabbits; MI rabbits, 10 min): 1 ± 1 mmHg | Heart rate, change from baseline after injection (control and MI rabbits; MI rabbits, 10 min): 1 ± 6 beat/min | Mean AP, change from baseline after injection (control and MI rabbits; MI rabbits, 10 min): −1 ± 2 mmHg | Systolic AP, change from baseline after injection (control and MI rabbits; MI rabbits, 10 min): 0 ± 1 mmHg | Diastolic AP, change from baseline after injection (control and MI rabbits; MI rabbits, 20 min): 2 ± 2 mmHg | Heart rate, change from baseline after injection (control and MI rabbits; MI rabbits, 20 min): −7 ± 10 beat/min | Mean AP, change from baseline after injection (control and MI rabbits; MI rabbits, 20 min): 2 ± 3 mmHg | Systolic AP, change from baseline after injection (control and MI rabbits; MI rabbits, 20 min): 1 ± 7 mmHg | effect on MAP, SAP and DAP (control and MI rabbits; MI rabbits, during and after administration): no alterations of these parameters were observed | effect on ECG waveform, cardiac rhythm, HR and QTc interval (control and MI rabbits; control or MI rabbits, 1-, 5-, 10- and 20-minute post iv injection): did not alter | effect on MAP, SAP and DAP (control and MI rabbits; control rabbits): did not induce changes | Retained Activity in syringe part ([1]; Barrel): 6.9% and 5.5% and 7.0% | Retained Activity in syringe part ([1]; Plunger (butyl rubber tip)): 30.9% and 27.7% and 21.8% | estimated human radiation dose for the heart wall (heart wall): 0.067 mSv/MBq | SDS [2]: 12.3 ± 7 | SRS [2]: 3.8 ± 6.6 | SSS [2]: 16.1 ± 7.8 | Diagnostic certainty of interpretation (% of cases with definitely abnormal/normal interpretation) ([3]; in vivo): 92.0% | area under the ROC curve for overall diagnosis of CAD ([3]; in vivo): 0.79±0.05 | % of images rated as either excellent or good ([3]; rest images): 96.8% | % of images rated as either excellent or good ([3]; stress images): 99.2% | changes from baseline in vital signs, laboratory values, ECGs and EEGs (healthy adults): not clinically significant | potential cardiotoxicity (coagulation studies, Troponin-T levels) (healthy adults): not exhibited | tolerability (healthy adults): well-tolerated and no clinically significant safety concerns were raised
